IC50 and EC50 data for 14 compounds are collected here from patent US20130109682A1, “CYCLIC ETHER COMPOUNDS USEFUL AS KINASE INHIBITORS” (NOVARTIS AG, priority 2010, published 2013).

Some results are limits rather than exact numbers.

One assay concerns the target PIM3 (Homo sapiens, UniProt Q86V86). The experiment in a line: KinaseGlo Pim3 ATP depletion assay. In kind it is biochemical. Put shortly: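 Residual ATP was detected by luciferase luminescence once about half had been consumed. The reaction contained 5 nM enzyme, 100 μM BAD peptide (RSRHSSYPAGT) and 40 μM ATP in 50 mM HEPES pH 7.5, 5 mM MgCl2, 1 mM DTT and 0.05% BSA with 2.5% DMSO. Compound and enzyme/peptide were premixed 15 min before ATP.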

For assay [1], the system named is KMS11 (human myeloma cell line). The experiment in a line: Cell proliferation assay (CellTiter-Glo), KMS11. Format: cell-based. The note with it: Homo sapiens, KMS-11; KMS11-Luc cells. In a few lines:
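EC50 derived from CellTiter-Glo luminescence after 3-day exposure at 37° C. Compound was diluted to 2× in medium and added to an equal volume of cells. KMS11 myeloma cells were plated on assay day at 2000/well in IMDM with 10% FBS and sodium pyruvate.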
In general terms: Cellular ATP, detected with luciferase, serves as a proxy for viable cell number.

For a further assay, the target named is PIM1 (Homo sapiens, UniProt P11309). Put plainly: KinaseGlo Pim1 ATP depletion assay. In kind it is biochemical. Put shortly:
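IC50 is derived from residual ATP measured by KinaseGlo Plus luminescence once about half the ATP was consumed. Final conditions were 20 μM ATP, 40 μM BAD peptide and 2.5 nM kinase in HEPES pH 7.5 buffer with MgCl2, DTT and BSA, plus 2.5% DMSO. Compound and enzyme were premixed 15 min before ATP addition.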
Background: Kinase-Glo measures the ATP left after a reaction by luminescence.

The target in the next assay is GSK3β (Homo sapiens, UniProt P49841). Put plainly: GSK3β ATP depletion assay. Format: biochemical. The note with it: read-out: GSK3b IC50. In a few lines:
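Kinase activity is read as ATP consumption: luciferase luminescence reports the ATP remaining once roughly half of the 2 μM ATP is used. Reaction mix: 5 nM GSK3β, 10 μM b-CREB peptide, 50 mM Tris pH 7.5, 15 mM MgCl2, 1 mM DTT, 0.1% BSA, 2.5% DMSO. Enzyme and peptide are preincubated 15 min before ATP is added.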

The target of the next assay is PIM2 (Homo sapiens, UniProt Q9P1W9). Put plainly: KinaseGlo Pim2 ATP depletion assay. In kind it is biochemical. In a few lines:
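Compound sat 15 min with enzyme and BAD peptide before ATP was added; final levels 5 nM PIM2, 10 μM peptide, 4 μM ATP, 2.5% DMSO, pH 7.5 HEPES buffer with MgCl2, DTT, BSA. Stopped near 50% ATP consumption; remaining ATP measured by luciferase luminescence.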

Sequence of PIM2 (Q9P1W9 whole entry): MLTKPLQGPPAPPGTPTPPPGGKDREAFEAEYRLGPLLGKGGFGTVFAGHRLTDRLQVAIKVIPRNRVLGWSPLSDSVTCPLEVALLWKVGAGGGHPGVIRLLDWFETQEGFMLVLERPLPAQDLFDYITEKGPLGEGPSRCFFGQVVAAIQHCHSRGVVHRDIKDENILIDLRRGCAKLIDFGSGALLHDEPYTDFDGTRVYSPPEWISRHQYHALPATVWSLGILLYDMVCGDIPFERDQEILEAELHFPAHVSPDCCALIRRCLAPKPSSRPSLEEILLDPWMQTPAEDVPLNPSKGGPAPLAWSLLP
Sequence of PIM1 (P11309 whole entry): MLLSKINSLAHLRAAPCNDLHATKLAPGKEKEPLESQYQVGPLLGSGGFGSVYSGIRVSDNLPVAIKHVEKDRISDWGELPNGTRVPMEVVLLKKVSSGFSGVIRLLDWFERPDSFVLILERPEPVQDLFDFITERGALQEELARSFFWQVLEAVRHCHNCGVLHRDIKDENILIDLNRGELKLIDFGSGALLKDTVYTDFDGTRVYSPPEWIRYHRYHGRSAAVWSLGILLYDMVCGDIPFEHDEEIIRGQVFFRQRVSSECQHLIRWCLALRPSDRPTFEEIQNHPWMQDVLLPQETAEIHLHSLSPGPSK
Sequence of GSK3β (P49841 whole entry, species assumed): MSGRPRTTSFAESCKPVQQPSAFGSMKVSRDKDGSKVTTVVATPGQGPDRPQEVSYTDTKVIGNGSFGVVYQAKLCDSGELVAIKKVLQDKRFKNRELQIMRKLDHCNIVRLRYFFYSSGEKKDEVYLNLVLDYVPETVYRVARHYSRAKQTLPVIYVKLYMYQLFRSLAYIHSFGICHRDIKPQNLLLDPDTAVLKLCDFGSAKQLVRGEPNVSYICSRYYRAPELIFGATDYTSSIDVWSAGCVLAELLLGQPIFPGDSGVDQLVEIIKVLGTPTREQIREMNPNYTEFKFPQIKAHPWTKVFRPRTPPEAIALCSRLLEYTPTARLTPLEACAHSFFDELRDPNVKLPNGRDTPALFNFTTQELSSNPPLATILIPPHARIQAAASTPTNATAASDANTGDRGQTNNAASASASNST

Broadly, the IC50 is the midpoint of a concentration-inhibition curve. The term EC50 denotes the concentration at which the effect is half-maximal. Turning to `O=C(Nc1cnccc1[C@@H]1C[C@H](O)[C@]2(O)CCCC[C@@H]2O1)c1ccc(F)c(-c2c(F)cccc2F)n1` [Example 177, 6-(2,6-difluorophenyl)-N-(4-((2S,4S,4aR,8aS)-4,4a-dihydroxyoctahydro-2H-chromen-2-yl)pyridin-3-yl)-5-fluoropicolinamide], the IC50 against PIM3 came out at 162 nM; on PIM1 it was 38.6 nM; at GSK3β, 1060 nM; against PIM2, 171 nM. The EC50 in assay [1] is 6830 nM.

As to `CC[C@]1(O)[C@H](O)C[C@H](c2ccncc2NC(=O)c2c[nH]cc(-c3ccccc3)c2=O)O[C@@H]1C` [Example 179, N-(4-((2R,4R,5S,6R)-5-ethyl-4,5-dihydroxy-6-methyltetrahydro-2H-pyran-2-yl)pyridin-3-yl)-4-oxo-5-phenyl-1,4-dihydropyridine-3-carboxamide], the IC50 amounted to 132 nM on PIM3, 259 nM on PIM1, 2690 nM at GSK3β and 3080 nM against PIM2. Further, the EC50 in assay [1] was more than 10000 nM.

Turning to `Nc1cnc(-c2c(F)cccc2F)nc1C(=O)Nc1cnccc1[C@H]1C[C@@H](O)[C@@]2(O)CCC[C@H]2O1` [Example 180, 5-amino-2-(2,6-difluorophenyl)-N-(4-((2R,4R,4aS,7aR)-4,4a-dihydroxyoctahydrocyclopenta[b]pyran-2-yl)pyridin-3-yl)pyrimidine-4-carboxamide], the 50% inhibitory concentration (IC50) on PIM3 was determined as 7.2 nM; at PIM1, 8.4 nM; on GSK3β, 101 nM; at PIM2 it was 10.6 nM. The compound also showed an EC50 in assay [1] of more than 10000 nM.

For `O=C(Nc1cnccc1[C@H]1C[C@@H](O)[C@@]2(O)CCC[C@H]2O1)c1c[nH]cc(-c2ccccc2)c1=O` [Example 181, N-(4-((2R,4R,4aS,7aR)-4,4a-dihydroxyoctahydrocyclopenta[b]pyran-2-yl)pyridin-3-yl)-4-oxo-5-phenyl-1,4-dihydropyridine-3-carboxamide], the IC50 at PIM3 is 492 nM; at PIM1, 825 nM; at GSK3β it was 4210 nM; against PIM2 it was 9100 nM. In addition, the EC50 in assay [1] is more than 10000 nM.

Turning to `Nc1cnc(-c2c(F)cccc2F)nc1C(=O)Nc1cnccc1[C@@H]1C[C@H](O)[C@]2(O)CCC[C@@H]2O1` [Example 182, 5-amino-2-(2,6-difluorophenyl)-N-(4-((2S,4S,4aR,7aS)-4,4a-dihydroxyoctahydrocyclopenta[b]pyran-2-yl)pyridin-3-yl)pyrimidine-4-carboxamide], the IC50 on PIM3 worked out at 951 nM; on PIM1 it was 539 nM; on GSK3β it was 2670 nM; against PIM2, 2780 nM. Also, in assay [1], the EC50 was more than 10000 nM.

Consider `O=C(Nc1cnccc1[C@@H]1C[C@H](O)[C@]2(O)CCC[C@@H]2O1)c1c[nH]cc(-c2ccccc2)c1=O` [Example 184, N-(4-((2S,4S,4aR,7aS)-4,4a-dihydroxyoctahydrocyclopenta[b]pyran-2-yl)pyridin-3-yl)-4-oxo-5-phenyl-1,4-dihydropyridine-3-carboxamide], for which the IC50 on PIM3, against PIM1, at GSK3β and against PIM2 was more than 25000 nM each time. In addition, the EC50 in assay [1] is more than 10000 nM.

For the compound `O=C(Nc1cnccc1[C@@H]1C[C@H](O)[C@]2(O)CCC[C@@H]2O1)c1ccc(F)c(-c2c(F)cccc2F)n1` [Example 188, 6-(2,6-difluorophenyl)-N-(4-((2S,4S,4aR,7aS)-4,4a-dihydroxyoctahydrocyclopenta[b]pyran-2-yl)pyridin-3-yl)-5-fluoropicolinamide], the IC50 at PIM3 came out at 144 nM; on PIM1, 34.5 nM; on GSK3β, 731 nM; against PIM2, 318 nM. In assay [1], the EC50 was more than 10000 nM.

On to `O=C(Nc1cnccc1[C@H]1C[C@@H](O)[C@@]2(O)CCCC[C@H]2O1)c1ccnn(-c2ccccc2F)c1=O` [Example 190, N-(4-((2R,4R,4aS,8aR)-4,4a-dihydroxyoctahydro-2H-chromen-2-yl)pyridin-3-yl)-2-(2-fluorophenyl)-3-oxo-2,3-dihydropyridazine-4-carboxamide], for which the half-inhibitory concentration (IC50) on PIM3 was 35.5 nM; against PIM1, 33.9 nM; on GSK3β, 38.5 nM; on PIM2 it was 494 nM. Besides, in assay [1], the EC50 is more than 10000 nM.

In the case of `O=C(Nc1cnccc1[C@@H]1C[C@H](O)[C@]2(O)CCCC[C@@H]2O1)c1ccnn(-c2ccccc2F)c1=O` [Example 191, N-(4-((2S,4S,4aR,8aS)-4,4a-dihydroxyoctahydro-2H-chromen-2-yl)pyridin-3-yl)-2-(2-fluorophenyl)-3-oxo-2,3-dihydropyridazine-4-carboxamide], the IC50 was 2370 nM against PIM3, 1780 nM at PIM1, 1080 nM on GSK3β and more than 25000 nM against PIM2. Besides, the EC50 in assay [1] is more than 10000 nM.

In the case of `O=C(Nc1cnccc1[C@@H]1C[C@H](O)[C@]2(O)CCC[C@@H]2O1)c1cccn(-c2ccccc2)c1=O` [Example 192, N-(4-((2S,4S,4aR,7aS)-4,4a-dihydroxyoctahydrocyclopenta[b]pyran-2-yl)pyridin-3-yl)-2-oxo-1-phenyl-1,2-dihydropyridine-3-carboxamide], the IC50 at PIM3, on PIM1, on GSK3β and on PIM2 was more than 25000 nM each time. Further, in assay [1], the concentration for a half-maximal effect (EC50) is more than 10000 nM.

Regarding `CC[C@H]1O[C@@H](c2ccncc2NC(=O)c2cccn(-c3ccccc3)c2=O)C[C@@H](O)[C@@H]1O` [Example 193, N-(4-((2R,4R,5S,6R)-6-ethyl-4,5-dihydroxytetrahydro-2H-pyran-2-yl)pyridin-3-yl)-2-oxo-1-phenyl-1,2-dihydropyridine-3-carboxamide], the IC50 against PIM3 is 7570 nM; against PIM1, 5850 nM; on GSK3β, more than 25000 nM; on PIM2, more than 25000 nM. The compound further had a concentration giving a half-maximal response (EC50) in assay [1] of more than 10000 nM.

Turning to `O=C(Nc1cnccc1[C@H]1C[C@@H](O)[C@@]2(O)CCC[C@H]2O1)c1cccn(-c2ccccc2)c1=O` [Example 194, N-(4-((2R,4R,4aS,7aR)-4,4a-dihydroxyoctahydrocyclopenta[b]pyran-2-yl)pyridin-3-yl)-2-oxo-1-phenyl-1,2-dihydropyridine-3-carboxamide], the IC50 at PIM3 is 2850 nM; on PIM1, 2210 nM; at GSK3β, 13300 nM; against PIM2, more than 25000 nM. The compound also returned an EC50 in assay [1] of more than 10000 nM.

As to `O=C1CC[C@H]2O[C@@H](c3ccncc3NC(=O)c3ccc(F)c(-c4c(F)cccc4F)n3)C[C@@H](O)[C@H]2N1` [Example 198, 6-(2,6-difluorophenyl)-5-fluoro-N-(4-((2R,4R,4aR,8aR)-4-hydroxy-6-oxooctahydro-2H-pyrano[3,2-b]pyridin-2-yl)pyridin-3-yl)picolinamide], the IC50 on PIM3 is 19.2 nM; against PIM1 it was 2.6 nM; at GSK3β, 24 nM; against PIM2 it was 53.6 nM. For the same compound, the EC50 in assay [1] is more than 10000 nM.

With `CC[C@H]1O[C@@H](c2ccncc2NC(=O)c2ccc(F)c(-c3c(F)cccc3F)n2)C[C@@H](O)[C@H]1C#N` [Example 200, N-(4-((2R,4R,5R,6R)-5-cyano-6-ethyl-4-hydroxytetrahydro-2H-pyran-2-yl)pyridin-3-yl)-6-(2,6-difluorophenyl)-5-fluoropicolinamide], the IC50 against PIM3 amounted to 33.9 nM; on PIM1, 7.8 nM; on GSK3β, 1200 nM; on PIM2, 46.7 nM. This compound showed an EC50 in assay [1] of more than 10000 nM.
